Results taken from ChEMBL document CHEMBL5046248, “New Pqs Quorum Sensing System Inhibitor as an Antibacterial Synergist against Multidrug-Resistant Pseudomonas aeruginosa” (J Med Chem, 2022).
Values after ≈ are worked out from the molar mass of the structure shown. Active and inactive are the calls of the source. The calls are words filed in the database; no cut-off is given here.

Experiments:
[1] = test system: Pseudomonas aeruginosa; test: Antibacterial activity against Pseudomonas aeruginosa PAO1 assessed as inhibition of biofilm formation for 24 hrs by crystal violet staining based assay; format: functional, organism-based; settings: PAO1, 24 h
[2] = test system: H9c2; test: Cytotoxicity against rat H9c2 cells assessed as reduction in cell viability at 50 uM incubated for 24 hrs by MTT assay; format: toxicity, cell-based; settings: h9c2, 24 h
[3] = test system: Pseudomonas aeruginosa; test: Synergistic antibacterial activity against multidrug-resistant Pseudomonas aeruginosa 1121 assessed as reduction in bacterial viability after 12 hrs in presence of 1/2 MIC of ciprofloxacin; format: functional, organism-based
[4] = test system: Pseudomonas aeruginosa; test: Synergistic antibacterial activity against Pseudomonas aeruginosa PAO1 assessed as reduction in bacterial viability after 12 hrs in presence of 1/2 MIC of ciprofloxacin; format: functional, organism-based
[5] = test system: Pseudomonas aeruginosa; test: Antibiofilm activity against Pseudomonas aeruginosa PAO1 assessed as inhibition rate at 0.625 uM for 24 hrs by crystal violet staining based assay relative to control; format: functional
[6] = test system: Pseudomonas aeruginosa; test: Antibiofilm activity against Pseudomonas aeruginosa PAO1 assessed as suppression of biofilm formation for 24 hrs by fluorescent dye SYTO9 and propidium iodide staining based confocal laser microscopic analysis; format: functional, organism-based; settings: dose 0.625-10 µM
[7] = test system: Pseudomonas aeruginosa; test: Inhibition of quorum sensing system in Pseudomonas aeruginosa PAO1 assessed as effect on elastase production for 24 hrs; settings: dose 1.25-20 µM
[8] = test system: Pseudomonas aeruginosa; test: Inhibition of quorum sensing system in Pseudomonas aeruginosa PAO1 assessed as effect on rhamnolipid production at 1.25 to 20 uM for 24 hrs; settings: dose 1.25-20 µM
[9] = test system: Pseudomonas aeruginosa; test: Inhibition of quorum sensing system in Pseudomonas aeruginosa PAO1 assessed as decrease of pyocyanin production at 1.25 to 20 uM for 24 hrs; settings: dose 1.25-20 µM
[10] = test system: Pseudomonas aeruginosa; test: Inhibition of quorum sensing system in Pseudomonas aeruginosa PAO1 assessed as reduction of pyocyanin expression in flask at 1.25 to 20 uM for 24 hrs; settings: dose 1.25-20 µM
[11] = test system: Pseudomonas aeruginosa; test: Inhibition of beta-galactosidase expression in Pseudomonas aeruginosa PAO1-mini-[…]-lacZ strain at 1.25 to 20 uM; format: functional; settings: dose 1.25-20 µM
[12] = test system: Pseudomonas aeruginosa; test: Inhibition of elastase expression in Pseudomonas aeruginosa PAO1-mini-[…]-lasB-lacZ strain assessed as decrease in beta-galactosidase at 1.25 to 20 uM; format: functional; settings: PAO1-mini-[…]-lasB-[…], dose 1.25-20 µM
[13] = test system: Pseudomonas aeruginosa; test: Inhibition of rhamnolipid expression in Pseudomonas aeruginosa PAO1-mini-[…]-rhlA-lacZ strain assessed as decrease in beta-galactosidase at 1.25 to 20 uM; format: functional; settings: PAO1-mini-ctx-[…]-lacZ, dose 1.25-20 µM
[14] = test system: Pseudomonas aeruginosa; test: Inhibition of pyocyanin expression in Pseudomonas aeruginosa PAO1-mini-[…]-pqsA-lacZ strain assessed as decrease in beta-galactosidase at 1.25 to 20 uM; format: functional; settings: PAO1-mini-ctx-pqsA-lacZ, dose 1.25-20 µM
[15] = test system: Pseudomonas aeruginosa; test: Antibiofilm activity against Pseudomonas aeruginosa PAO1 assessed as increase in pyoverdine production at 40 uM by fluorescence assay; format: functional, organism-based
[16] = test system: Pseudomonas aeruginosa; test: Antibiofilm activity against Pseudomonas aeruginosa PAO1 assessed as effect on pyochelin production fluorescence at 1.25 to 20 uM by fluorescence assay; format: functional, organism-based; settings: dose 1.25-20 µM
[17] = test system: Pseudomonas aeruginosa; test: Antibiofilm activity against Pseudomonas aeruginosa PAO1 assessed as inhibition of swarming motility for 16 hrs by motility assay; format: functional, organism-based; settings: dose 1.25-20 µM
[18] = test system: Pseudomonas aeruginosa; test: Antibiofilm activity against Pseudomonas aeruginosa PAO1 assessed as inhibition of swimming motility for 16 hrs by motility assay; format: functional, organism-based; settings: dose 1.25-20 µM
[19] = test system: Pseudomonas aeruginosa; test: Antibiofilm activity against Pseudomonas aeruginosa PAO1 assessed as inhibition of twitching motility for 16 hrs by motility assay; format: functional, organism-based; settings: dose 1.25-20 µM
[20] = test system: Pseudomonas aeruginosa; test: Antibacterial activity against Pseudomonas aeruginosa PAO1 infected rat H9c2 cells assessed as reduction in virulence mediated cytotoxicity by measuring increase in cell viability by MTT assay; format: functional, organism-based; settings: dose 1.25-20 µM
[21] = test system: Pseudomonas aeruginosa; test: Antibacterial activity against Pseudomonas aeruginosa PAO1 infected rat H9c2 cells assessed as reduction in virulence mediated cytotoxicity by measuring cell survival rate at 20 uM by MTT assay (reference value: 36%); format: functional
[22] = test system: Pseudomonas aeruginosa; test: In vivo antibacterial activity against Pseudomonas aeruginosa PAO1-gfp infected in tail injured zebrafish model assessed as reduction in mortality at 10 to 20 uM measured upto 50 hrs of post fertilization; format: functional, organism-based; settings: dose 10-20 µM, time hrs <=50
[23] = test system: Pseudomonas aeruginosa; test: In vivo antibacterial activity against Pseudomonas aeruginosa PAO1-gfp infected in tail injured zebrafish model assessed as increase in survival of zebrafish at 10 to 20 uM measured upto 50 hrs of post fertilization; format: functional, organism-based; settings: dose 10-20 µM, time hrs <=50
[24] = test system: Pseudomonas aeruginosa; test: In vivo antibacterial activity against Pseudomonas aeruginosa PAO1-gfp infected in tail injured zebrafish model assessed as reduction in bacterial burden at 20 uM measured after 24 hrs of post infection; format: functional, organism-based
[25] = test system: H9c2; test: Cytotoxicity against rat H9c2 cells assessed as reduction in cell viability at up to 25 uM incubated for 24 hrs by MTT assay; format: toxicity, cell-based; settings: h9c2, 24 h
[26] = test system: Pseudomonas aeruginosa; test: Synergistic antibacterial activity against multidrug-resistant Pseudomonas aeruginosa 1129 assessed as reduction in bacterial viability after 12 hrs in presence of 1/2 MIC of ciprofloxacin; format: functional, organism-based
[27] = test system: Pseudomonas aeruginosa; test: Synergistic antibacterial activity against multidrug-resistant Pseudomonas aeruginosa 1167 assessed as reduction in bacterial viability after 12 hrs in presence of 1/2 MIC of ciprofloxacin; format: functional, organism-based
[28] = test system: Pseudomonas aeruginosa; test: Synergistic antibacterial activity against multidrug-resistant Pseudomonas aeruginosa FB assessed as reduction in bacterial viability after 12 hrs in presence of 1/2 MIC of ciprofloxacin; format: functional, organism-based
[29] = test system: Pseudomonas aeruginosa; test: Synergistic antibacterial activity against Pseudomonas aeruginosa PAO1 assessed as reduction in bacterial viability after 12 hrs in presence of tobramycin; format: functional, organism-based
[30] = test system: Pseudomonas aeruginosa; test: Synergistic antibacterial activity against multidrug-resistant Pseudomonas aeruginosa 1129 assessed as reduction in bacterial viability after 12 hrs in presence of tobramycin; format: functional, organism-based
[31] = test system: Pseudomonas aeruginosa; test: Synergistic antibacterial activity against multidrug-resistant Pseudomonas aeruginosa FB assessed as reduction in bacterial viability after 12 hrs in presence of tobramycin; format: functional, organism-based
[32] = test system: Pseudomonas aeruginosa; test: Synergistic antibacterial activity against Pseudomonas aeruginosa PAO1 assessed as reduction in bacterial viability after 12 hrs in presence of colistin E; format: functional, organism-based
[33] = test system: Pseudomonas aeruginosa; test: Synergistic antibacterial activity against multidrug-resistant Pseudomonas aeruginosa 1121 assessed as reduction in bacterial viability after 12 hrs in presence of colistin E; format: functional, organism-based
[34] = test system: Pseudomonas aeruginosa; test: Synergistic antibacterial activity against multidrug-resistant Pseudomonas aeruginosa 1129 assessed as reduction in bacterial viability after 12 hrs in presence of colistin E; format: functional, organism-based
[35] = test system: Pseudomonas aeruginosa; test: Synergistic antibacterial activity against multidrug-resistant Pseudomonas aeruginosa 1167 assessed as reduction in bacterial viability after 12 hrs in presence of colistin E; format: functional, organism-based
[36] = test system: Pseudomonas aeruginosa; test: Synergistic antibacterial activity against multidrug-resistant Pseudomonas aeruginosa FB assessed as reduction in bacterial viability after 12 hrs in presence of colistin E; format: functional, organism-based
[37] = test system: Pseudomonas aeruginosa; test: Antibacterial activity against Pseudomonas aeruginosa PAO1 assessed as bacterial growth inhibition by broth microdilution method; format: functional
[38] = test system: Pseudomonas aeruginosa; test: Antibacterial activity against Pseudomonas aeruginosa 1121 assessed as bacterial growth inhibition by broth microdilution method; format: functional
[39] = test system: Pseudomonas aeruginosa; test: Antibacterial activity against Pseudomonas aeruginosa 1129 assessed as bacterial growth inhibition by broth microdilution method; format: functional
[40] = test system: Pseudomonas aeruginosa; test: Antibacterial activity against Pseudomonas aeruginosa 1167 assessed as bacterial growth inhibition by broth microdilution method; format: functional
[41] = test system: Pseudomonas aeruginosa; test: Antibacterial activity against Pseudomonas aeruginosa FB assessed as bacterial growth inhibition by broth microdilution method; format: functional

SMILES: CCCCn1c(C)cc(=O)c(O)c1CNC(=O)c1ccc(C(F)(F)F)cc1
- IC50 [1]: 8.4 µM

SMILES: CCCCn1c(C)cc(=O)c(O)c1CNC(=O)Cc1ccc(F)cc1
- IC50 [1]: > 100 µM

SMILES: O=C(NCc1cc(=O)c(O)cn1O)c1ccc(C(F)(F)F)cc1
- IC50 [1]: > 100 µM

SMILES: CCCCn1c(C)cc(=O)c(O)c1CNC(=O)c1ccccc1OC
- IC50 [1]: 28.5 µM

SMILES: CCCCn1c(C)cc(=O)c(O)c1CNC(=O)c1ccc(OC)cc1
- Activity [2]: Toxic
- IC50 [1]: 4.5 µM
- Activity [3]: Dose-Dependent Effect
- Activity [4]: Dose-Dependent Effect
- inhibition at 0.625 µM [5]: > 28%
- Activity [6]: Dose-Dependent Effect
- Activity [7]: inactive
- Activity [8]: inactive
- Activity [9]: Dose-Dependent Effect
- Activity [10]: Active
- Activity [11]: inactive
- Activity [12]: inactive
- Activity [13]: inactive
- Activity [14]: Dose-Dependent Effect
- Activity [15]: Active
- Activity [16]: inactive
- Activity [17]: Dose-Dependent Effect
- Activity [18]: Dose-Dependent Effect
- Activity [19]: Dose-Dependent Effect
- Activity [20]: Dose-Dependent Effect
- Activity [21]: 79%
- Activity [22]: Active
- Activity [23]: Active
- Activity [24]: Active
- Activity [25]: Non-Toxic
- Activity [26]: Dose-Dependent Effect
- Activity [27]: Dose-Dependent Effect
- Activity [28]: Dose-Dependent Effect
- Activity [29]: Dose-Dependent Effect
- Activity [30]: Dose-Dependent Effect
- Activity [31]: Dose-Dependent Effect
- Activity [32]: Dose-Dependent Effect
- Activity [33]: Dose-Dependent Effect
- Activity [34]: Dose-Dependent Effect
- Activity [35]: Dose-Dependent Effect
- Activity [36]: Dose-Dependent Effect

SMILES: CCCn1c(C)cc(=O)c(O)c1CNC(=O)c1ccc(C(F)(F)F)cc1
- IC50 [1]: > 100 µM

SMILES: COc1ccc(CC(=O)NCc2cc(=O)c(O)cn2O)cc1
- IC50 [1]: > 100 µM

SMILES: CCCn1c(C)cc(=O)c(O)c1CNC1CCCC1
- IC50 [1]: > 100 µM

SMILES: COCCn1c(C)cc(=O)c(O)c1CNC(=O)c1ccc(C(F)(F)F)cc1
- IC50 [1]: > 100 µM

SMILES: COc1ccc(C(=O)NCc2cc(=O)c(O)cn2O)cc1
- IC50 [1]: > 100 µM

SMILES: O=C(Cc1ccc(F)cc1)NCc1cc(=O)c(O)cn1O
- IC50 [1]: > 100 µM

SMILES: Cn1cc(O)c(=O)cc1CNC(=O)Cc1ccc(F)cc1
- IC50 [1]: > 100 µM

SMILES: CCCCCC(=O)NCc1c(O)c(=O)cc(C)n1CCCC
- IC50 [1]: 34.9 µM

SMILES: CCCCCC(=O)NCc1c(O)c(=O)cc(C)n1CCC
- IC50 [1]: > 100 µM

SMILES: CCCCCCC(=O)NCc1cc(=O)c(O)cn1O
- IC50 [1]: > 100 µM

SMILES: COCCn1c(C)cc(=O)c(O)c1CNC(=O)c1ccc(OC)cc1
- IC50 [1]: > 100 µM

SMILES: Cn1cc(O)c(=O)cc1CNC(=O)c1ccc(C(F)(F)F)cc1
- IC50 [1]: > 100 µM

SMILES: CCCCCC(=O)NCc1cc(=O)c(O)cn1O
- IC50 [1]: > 100 µM

SMILES: CCCCCCC(=O)NCc1c(O)c(=O)cc(C)n1CCC
- IC50 [1]: > 100 µM

SMILES: COc1ccc(C(=O)NCc2cc(=O)c(O)cn2C)cc1
- IC50 [1]: > 100 µM

SMILES: CCCCCC(=O)NCc1c(O)c(=O)cc(C)n1CC
- IC50 [1]: > 100 µM

SMILES: NC[C@H]1O[C@H](O[C@H]2[C@H](O)[C@@H](O[C@H]3O[C@H](CO)[C@@H](O)[C@H](N)[C@H]3O)[C@H](N)C[C@@H]2N)[C@H](N)C[C@@H]1O [TOBRAMYCIN]
- MIC [37]: 5 µg/mL (≈ 10.7 µM)
- MIC [38]: 10 µg/mL (≈ 21.4 µM)
- MIC [39]: 10 µg/mL (≈ 21.4 µM)
- MIC [40]: 10 µg/mL (≈ 21.4 µM)
- MIC [41]: 10 µg/mL (≈ 21.4 µM)
